BindingDB's records for patent US20240010658 (Ono Pharmaceutical Co., 2024)

Molecular target: T1, Monoacylglycerol lipase ABHD6 [33-337] (Homo sapiens, UniProt Q9BV23)
T1 construct: 33-337
T1 sequence (Q9BV23 whole entry): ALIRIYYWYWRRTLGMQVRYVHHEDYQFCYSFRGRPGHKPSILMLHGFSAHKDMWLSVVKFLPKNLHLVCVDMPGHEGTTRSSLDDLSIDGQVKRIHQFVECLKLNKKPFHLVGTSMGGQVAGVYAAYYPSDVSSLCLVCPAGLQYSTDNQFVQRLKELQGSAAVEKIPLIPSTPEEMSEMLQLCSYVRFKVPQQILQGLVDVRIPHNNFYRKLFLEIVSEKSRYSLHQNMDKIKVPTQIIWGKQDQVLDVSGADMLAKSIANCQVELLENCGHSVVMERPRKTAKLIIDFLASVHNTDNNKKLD
Assay: Evaluation of ABHD6 Enzyme Inhibitory Activity Assay
Description: The enzyme reaction was carried out at room temperature using a 384-well microplate made of polypropylene, and wells to which no enzyme was added were designated as a blank group. One hour after the start of the enzyme reaction, methanol containing, as an internal standard substance, arachidonic acid-d8 (Cayman Chemical) and 1% formic acid was added to stop enzymatic reaction. The upper part of the enzyme reaction plate was sealed with aluminum, and centrifugation was performed at 560 g for 5 minutes at room temperature. Then, arachidonic acid as an enzyme reaction product and arachidonic acid-ds as the internal standard substance were quantified with RapidFire (registered trademark)-Mass Spectrometry system.

## CN(C)c1ncc(C(=O)N2C[C@@H]3CC[C@@H](Nc4ccc(Br)nn4)[C@@H]3C2)s1 [US20240010658, Example 2-6]
  IC50: in the range around 2 nM
